Measurements taken from ChEMBL document CHEMBL5252528, “Transient Receptor Potential Melastatin 8 Channel (TRPM8) Modulation: Cool Entryway for Treating Pain and Cancer” (J Med Chem, 2016).

Experiments:
[1] = target: T1, Transient receptor potential cation channel subfamily M member 8 (Homo sapiens, UniProt Q7Z2W7); assay: Antagonist activity at human TRMP8 incubated for 24 hrs; type: cell-based, HEK293
[2] = target: T1, Transient receptor potential cation channel subfamily M member 8; assay: Antagonist activity at TRPM8 (unknown origin)
[3] = target: T1, Transient receptor potential cation channel subfamily M member 8; assay: Agonist activity at TRPM8 (unknown origin) by fluorometric imaging plate reader analysis
[4] = target: Transient receptor potential cation channel subfamily V member 1 (Homo sapiens, UniProt Q8NER1); assay: Modulation of TRPV1 (unknown origin) by fluorometric imaging plate reader analysis
[5] = target: T1, Transient receptor potential cation channel subfamily M member 8; assay: Antagonist activity at human TRPM8 expressed in CHO cells; type: cell-based
[6] = test system: Rattus norvegicus; assay: Antihypersensitivity activity at rat assessed as reduction in wet-dog shakes at 1 mg/kg relative to control; type: functional
[7] = test system: Rattus norvegicus; assay: Reversal of icilin induced behaviours in rat at 30 mg/kg, po relative to control; type: functional
[8] = target: T1, Transient receptor potential cation channel subfamily M member 8; assay: […] activity at human TRMP8 expressed in HEK293 cells incubated for 24 hrs by HTS assay; type: cell-based
[9] = test system: Rattus norvegicus; assay: Reversal of icilin induced behaviours in rat at 10 mg/kg, po relative to control; type: functional
[10] = organism: Rattus norvegicus; assay: Antihypersensitivity activity at rat assessed as reduction in pain relative to control; type: functional
[11] = target: T1, Transient receptor potential cation channel subfamily M member 8; assay: Agonist activity at TRPM8 (unknown origin)
[12] = target: Transient receptor potential cation channel subfamily A member 1 (Homo sapiens, UniProt O75762); assay: Agonist activity at TRPA1 (unknown origin)
[13] = target: T1, Transient receptor potential cation channel subfamily M member 8; assay: Antagonist activity at human TRPM8 expressed in […] induced HEK293 cells; type: cell-based
[14] = target: T1, Transient receptor potential cation channel subfamily M member 8; assay: Antagonist activity at human TRPM8 expressed in HEK293 cells assessed as reduction in menthol induced calcium influx; type: cell-based
[15] = target: T1, Transient receptor potential cation channel subfamily M member 8; assay: Antagonist activity at TRPM8 (unknown origin) by fluorescence based assay
[16] = test system: Rattus norvegicus; assay: Antihypersensitivity activity at icilin induced rat assessed as reduction in wet-dog shakes at 3 mg/kg relative to control; type: functional
[17] = target: Transient receptor potential cation channel subfamily M member 8 (Mus musculus, UniProt Q8R4D5); assay: Agonist activity at mouse TRMP8 expressed in HEK293 cells; type: cell-based
[18] = test system: Rattus norvegicus; assay: Antinociceptive activity at rat assessed as reduction in pain at 30 mg/kg, po relative to control; type: functional
[19] = organism: Rattus norvegicus; assay: Antihypersensitivity activity at rat assessed as cardiovascular pressor responses relative to control; type: functional
[20] = organism: Rattus norvegicus; assay: Antihypersensitivity activity at rat assessed as reduction in wet-dog shakes relative to control; type: functional
[21] = target: T1, Transient receptor potential cation channel subfamily M member 8; assay: […] activity at human TRMP8 expressed in HEK293 cells measured after 24 hrs of cold activation by patch clamp assay; type: cell-based
[22] = target: T1, Transient receptor potential cation channel subfamily M member 8; assay: […] activity at human TRMP8 expressed in HEK293 cells measured after 24 hrs of menthol activation by patch clamp assay; type: cell-based
[23] = test system: Rattus norvegicus; assay: Antihypersensitivity activity at carrageenan induced rat assessed as reduction in heat hypersensitivity at 30 mg/kg, po relative to control; type: functional
[24] = test system: Rattus norvegicus; assay: Antihypersensitivity activity at cfa induced rat assessed as thermal and mechanical hyperalgesia at 10 mg/kg, po relative to control; type: functional
[25] = target: T1, Transient receptor potential cation channel subfamily M member 8; assay: Agonist activity at human TRMP8 expressed in HEK293 cells; type: cell-based
[26] = target: T1, Transient receptor potential cation channel subfamily M member 8; assay: Agonist activity at human recombinant TRPM8
[27] = target: T1, Transient receptor potential cation channel subfamily M member 8; assay: Antagonist activity at human TRPM8 expressed in HEK293 cells; type: cell-based
[28] = target: Transient receptor potential cation channel subfamily M member 8 (Rattus norvegicus) (UniProt Q8R455); assay: In vivo antagonist activity at TRPM8 in po dosed rat assessed as shaking behaviour; type: functional, organism-based
Transient receptor potential cation channel subfamily M member 8 (Rattus norvegicus), sequence (Q8R455 whole entry, looked up): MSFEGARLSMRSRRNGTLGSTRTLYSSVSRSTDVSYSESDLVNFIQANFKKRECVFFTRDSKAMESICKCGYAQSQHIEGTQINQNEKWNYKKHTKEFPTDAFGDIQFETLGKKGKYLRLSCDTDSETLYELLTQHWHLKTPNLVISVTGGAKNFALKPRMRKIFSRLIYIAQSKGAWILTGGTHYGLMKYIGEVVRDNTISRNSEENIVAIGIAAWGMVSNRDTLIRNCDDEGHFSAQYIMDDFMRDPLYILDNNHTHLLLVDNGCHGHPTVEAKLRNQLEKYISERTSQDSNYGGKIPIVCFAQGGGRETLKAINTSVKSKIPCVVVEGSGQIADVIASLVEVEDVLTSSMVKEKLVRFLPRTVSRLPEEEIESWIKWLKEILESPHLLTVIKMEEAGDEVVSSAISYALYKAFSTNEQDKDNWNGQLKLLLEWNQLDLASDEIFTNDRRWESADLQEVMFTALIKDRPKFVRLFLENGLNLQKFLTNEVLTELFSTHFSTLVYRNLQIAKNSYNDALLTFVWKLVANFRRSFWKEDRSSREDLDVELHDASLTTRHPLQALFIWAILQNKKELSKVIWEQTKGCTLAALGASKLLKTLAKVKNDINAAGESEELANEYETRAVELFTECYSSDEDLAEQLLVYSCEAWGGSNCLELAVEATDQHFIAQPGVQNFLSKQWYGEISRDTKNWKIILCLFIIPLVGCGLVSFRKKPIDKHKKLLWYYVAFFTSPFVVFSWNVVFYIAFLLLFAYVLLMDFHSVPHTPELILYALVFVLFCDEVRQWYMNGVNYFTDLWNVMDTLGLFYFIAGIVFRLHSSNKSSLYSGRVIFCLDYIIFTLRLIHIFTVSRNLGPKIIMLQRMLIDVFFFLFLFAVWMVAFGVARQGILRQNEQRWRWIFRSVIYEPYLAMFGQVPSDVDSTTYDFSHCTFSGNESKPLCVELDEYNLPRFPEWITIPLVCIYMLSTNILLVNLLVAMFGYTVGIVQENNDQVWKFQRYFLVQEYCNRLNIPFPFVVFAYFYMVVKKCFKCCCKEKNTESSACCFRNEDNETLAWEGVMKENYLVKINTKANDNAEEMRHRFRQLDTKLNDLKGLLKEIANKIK

T1 sequence (Q7Z2W7 whole entry): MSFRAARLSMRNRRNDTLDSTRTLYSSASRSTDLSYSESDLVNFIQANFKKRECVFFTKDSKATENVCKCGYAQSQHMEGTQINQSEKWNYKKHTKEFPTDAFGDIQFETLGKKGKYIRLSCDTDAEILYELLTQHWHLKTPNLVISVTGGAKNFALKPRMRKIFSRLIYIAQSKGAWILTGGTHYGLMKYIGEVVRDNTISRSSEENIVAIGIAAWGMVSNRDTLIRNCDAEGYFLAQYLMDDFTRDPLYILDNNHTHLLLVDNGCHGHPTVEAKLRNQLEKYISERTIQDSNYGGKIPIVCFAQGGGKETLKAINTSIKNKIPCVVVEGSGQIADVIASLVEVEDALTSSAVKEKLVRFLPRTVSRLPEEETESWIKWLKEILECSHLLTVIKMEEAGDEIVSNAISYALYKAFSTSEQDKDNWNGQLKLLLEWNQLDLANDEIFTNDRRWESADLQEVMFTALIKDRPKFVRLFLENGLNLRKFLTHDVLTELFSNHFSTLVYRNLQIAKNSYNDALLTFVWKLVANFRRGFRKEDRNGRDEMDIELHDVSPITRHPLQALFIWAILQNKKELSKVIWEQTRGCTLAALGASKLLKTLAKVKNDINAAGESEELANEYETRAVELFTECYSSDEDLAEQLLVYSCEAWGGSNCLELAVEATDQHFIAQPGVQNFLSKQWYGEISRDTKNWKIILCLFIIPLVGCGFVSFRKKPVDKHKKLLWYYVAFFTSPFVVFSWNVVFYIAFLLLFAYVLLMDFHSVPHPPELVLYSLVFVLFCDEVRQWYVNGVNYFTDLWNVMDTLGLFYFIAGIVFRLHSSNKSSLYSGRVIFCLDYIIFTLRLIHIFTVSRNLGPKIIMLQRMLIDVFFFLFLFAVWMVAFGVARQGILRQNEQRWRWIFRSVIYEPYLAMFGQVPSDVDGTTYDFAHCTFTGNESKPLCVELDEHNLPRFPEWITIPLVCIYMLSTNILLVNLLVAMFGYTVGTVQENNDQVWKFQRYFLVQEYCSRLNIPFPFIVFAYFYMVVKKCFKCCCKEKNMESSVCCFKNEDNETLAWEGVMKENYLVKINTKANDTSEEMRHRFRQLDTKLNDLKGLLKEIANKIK
Transient receptor potential cation channel subfamily M member 8 (Mus musculus, UniProt Q8R4D5), sequence (Q8R4D5 whole entry): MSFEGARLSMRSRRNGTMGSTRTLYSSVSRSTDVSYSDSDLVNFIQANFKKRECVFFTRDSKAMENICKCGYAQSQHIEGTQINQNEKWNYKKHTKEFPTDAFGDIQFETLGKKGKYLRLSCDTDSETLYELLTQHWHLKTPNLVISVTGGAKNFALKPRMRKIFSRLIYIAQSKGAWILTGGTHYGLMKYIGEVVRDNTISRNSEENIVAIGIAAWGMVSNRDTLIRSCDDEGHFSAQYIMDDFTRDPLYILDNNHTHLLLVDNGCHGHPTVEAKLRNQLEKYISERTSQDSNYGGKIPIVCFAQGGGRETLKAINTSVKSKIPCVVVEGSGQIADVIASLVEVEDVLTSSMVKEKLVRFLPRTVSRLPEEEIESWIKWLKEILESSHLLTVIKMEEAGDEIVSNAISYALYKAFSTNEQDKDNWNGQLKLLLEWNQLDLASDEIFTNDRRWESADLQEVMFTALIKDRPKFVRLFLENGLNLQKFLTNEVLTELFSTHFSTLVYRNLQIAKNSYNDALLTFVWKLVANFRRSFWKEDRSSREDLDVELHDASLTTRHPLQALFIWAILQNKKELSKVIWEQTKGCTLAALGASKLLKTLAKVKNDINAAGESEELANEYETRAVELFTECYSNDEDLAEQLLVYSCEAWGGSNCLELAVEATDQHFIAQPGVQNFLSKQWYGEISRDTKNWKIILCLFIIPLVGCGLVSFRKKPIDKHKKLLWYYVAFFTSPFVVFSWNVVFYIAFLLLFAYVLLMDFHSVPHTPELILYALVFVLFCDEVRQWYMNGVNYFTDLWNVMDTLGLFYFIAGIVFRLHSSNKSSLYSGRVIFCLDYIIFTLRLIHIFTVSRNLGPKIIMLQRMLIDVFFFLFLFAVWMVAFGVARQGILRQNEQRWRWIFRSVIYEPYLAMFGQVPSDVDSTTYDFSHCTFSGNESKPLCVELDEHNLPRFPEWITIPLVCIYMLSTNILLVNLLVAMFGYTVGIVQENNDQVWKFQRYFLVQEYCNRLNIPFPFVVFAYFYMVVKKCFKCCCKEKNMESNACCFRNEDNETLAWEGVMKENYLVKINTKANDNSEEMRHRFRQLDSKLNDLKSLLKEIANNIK
Transient receptor potential cation channel subfamily V member 1, sequence (Q8NER1 whole entry): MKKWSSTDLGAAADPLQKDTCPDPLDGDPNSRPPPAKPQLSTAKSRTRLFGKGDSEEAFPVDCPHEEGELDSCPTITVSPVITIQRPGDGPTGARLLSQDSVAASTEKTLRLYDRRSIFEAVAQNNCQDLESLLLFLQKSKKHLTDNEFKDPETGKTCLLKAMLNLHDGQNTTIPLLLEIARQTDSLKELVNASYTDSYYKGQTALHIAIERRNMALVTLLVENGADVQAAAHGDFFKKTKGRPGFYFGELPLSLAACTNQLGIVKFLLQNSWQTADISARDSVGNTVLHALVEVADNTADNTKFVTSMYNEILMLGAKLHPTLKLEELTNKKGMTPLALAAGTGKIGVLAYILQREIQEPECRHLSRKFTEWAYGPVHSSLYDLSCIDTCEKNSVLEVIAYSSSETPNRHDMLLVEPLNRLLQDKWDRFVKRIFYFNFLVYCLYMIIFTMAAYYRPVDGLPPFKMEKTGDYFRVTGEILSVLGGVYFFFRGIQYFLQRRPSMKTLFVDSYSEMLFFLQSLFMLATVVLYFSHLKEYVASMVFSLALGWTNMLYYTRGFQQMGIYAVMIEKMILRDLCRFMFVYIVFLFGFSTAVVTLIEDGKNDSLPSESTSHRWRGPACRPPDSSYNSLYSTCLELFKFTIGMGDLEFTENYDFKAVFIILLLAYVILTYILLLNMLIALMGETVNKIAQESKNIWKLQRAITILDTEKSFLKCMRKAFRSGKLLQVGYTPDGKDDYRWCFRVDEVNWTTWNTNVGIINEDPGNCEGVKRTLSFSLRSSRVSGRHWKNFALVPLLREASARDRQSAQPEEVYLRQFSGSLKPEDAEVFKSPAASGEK

Structure (SMILES): CCn1c(N(Cc2ccc(C(F)(F)F)cc2)S(=O)(=O)c2ccccc2)nc2cc(F)ccc21
- IC50 [1]: 0.006 µM

Structure (SMILES): CCCCCc1cc(O)c(C/C=C(\C)CCC=C(C)C)c(O)c1 [CANNABIGEROL]
- IC50 [2]: 0.16 µM

Structure (SMILES): COc1ccc(NC(=O)[C@@H]2C[C@H](C)CC[C@H]2C(C)C)c(NC(=O)[C@@H](C)N)c1
- EC50 [3]: 3 µM

Structure (SMILES): c1ccc(CN(CCc2c[nH]c3ccccc23)Cc2ccccc2)cc1
- IC50 [4]: 0.035 µM
- IC50 [2]: 0.8 µM

Structure (SMILES): COc1ccc(NC(=O)[C@@H]2C[C@H](C)CC[C@H]2C(C)C)cc1 [ACOLTREMON]
- EC50 [3]: 12 µM

Structure (SMILES): CC(C)[C@@H]1CC[C@@H](C)C[C@H]1C(=O)NCC(NC(=O)[C@H](C)N)c1ccccc1 (stereo partly drawn)
- EC50 [3]: < 5 µM

Structure (SMILES): O=C(N[C@]1(c2ccc(OC(F)(F)F)cc2)CCOc2cccnc21)c1ccc2[nH]cnc2c1
- IC50 [5]: 0.004 µM
- inhibition in vivo at 1 mg/kg [6]: > 90%

Structure (SMILES): CC(C)OP(=O)(OC(C)C)[C@@H](Cc1ccc(F)c(C(F)(F)F)c1)c1sc2ccccc2c1Br
- Activity [7]: 80%
- IC50 [8]: 0.009 µM

Structure (SMILES): CCCCCc1cc2c(c(O)c1C(=O)O)[C@@H]1C=C(C)CC[C@H]1C(C)(C)O2 [DELTA9-TETRAHYDROCANNABINOLIC ACID A]
- IC50 [2]: 0.15 µM

Structure (SMILES): FC(F)(F)c1ccccc1-c1cc(C(F)(F)F)c2[nH]c(C3=NOC4(CCCCC4)C3)nc2c1
- Activity [9]: 98%
- inhibition (INH) [10]: 83%

Structure (SMILES): Clc1ccc(-c2nnc(N3CCOCC3)n2-c2ccccc2)cc1
- EC50 [11]: 45 µM
- EC50 [12]: 4 µM

Structure (SMILES): CCCCCc1cc(O)c2c(c1)OC(C)(C)[C@@H]1CCC(C)=C[C@@H]21 [DRONABINOL]
- IC50 [2]: 0.16 µM

Structure (SMILES): C[C@H](N)[C@H](O)C/C=C\C/C=C\C/C=C\C/C=C\C/C=C\C/C=C\CCCCCC[C@@H](O)[C@H](C)N
- IC50 [2]: 6 µM

Structure (SMILES): Cc1c(N(Cc2ccc(OC(F)(F)F)cc2)S(=O)(=O)CCN2CCC(c3ccccc3)CC2)sc2ccccc12
- IC50 [8]: 0.026 µM

Structure (SMILES): NCCc1c[nH]c2ccc(Oc3ccccc3)cc12
- IC50 [13]: 0.34 µM

Structure (SMILES): CC(C)[C@@H]1CC[C@@H](C)C[C@H]1OC(=O)[C@@H](C)O
- EC50 [3]: 160 µM

Structure (SMILES): Cc1ccc2nc(C(F)(F)F)n(-c3ccc(C(=O)CN4C(=O)NC5(CCC(F)(F)CC5)C4=O)cc3)c2n1
- IC50 [14]: < 0.01 µM

Structure (SMILES): COC(=O)C(NCc1ccccc1)[C@H](Cc1ccccc1)NC(=O)OCc1ccccc1 (stereo partly drawn)
- IC50 [15]: 3 µM

Structure (SMILES): C=CCc1cc(OC)c(OC(C)C(O[C@@H]2C[C@H](C)CC[C@H]2C(C)C)c2ccc(OC)c(OC)c2)c(OC)c1 (stereo partly drawn)
- EC50 [3]: 10 µM

Structure (SMILES): COc1ccccc1C(=O)N([C@H]1CCc2c(F)cc(Cl)cc21)[C@@H](C(N)=O)c1ccccc1
- inhibition in vivo at 3 mg/kg [16]: 100%

Structure (SMILES): CC(C)[C@@H]1CC[C@@H](C)C[C@H]1C(=O)Nc1ccc(S(=O)(=O)Nc2ncccn2)cc1
- EC50 [3]: 4 µM

Structure (SMILES): Clc1ccccc1C(c1ccccc1)(c1ccccc1)n1ccnc1 [CLOTRIMAZOLE]
- IC50 [2]: 8 µM

Structure (SMILES): CCn1/c(=N/S(=O)(=O)c2ccccc2)n(Cc2ccc(C(F)(F)F)c(F)c2)c2cc(C(F)(F)F)ccc21
- IC50 [1]: 0.005 µM

Structure (SMILES): CC(C)=CCC/C(C)=C/CO [GERANIOL]
- EC50 [17]: 6000 µM

Structure (SMILES): COc1cc(CNC(=O)CCCC/C=C/C(C)C)ccc1O [CAPSAICIN]
- IC50 [2]: 1 µM

Structure (SMILES): COc1nc(-c2ccccc2Cl)cc2nc(-c3c(Cl)c(C(C)(C)C)nn3C)[nH]c12
- IC50 [1]: 0.0035 µM

Structure (SMILES): Cc1c(N(Cc2ccc(F)c(C(F)(F)F)c2)S(=O)(=O)c2ccc(C(=O)O)cc2)sc2ccccc12
- inhibition in vivo at 30 mg/kg [18]: 69%
- inhibition (INH) [19]: 75%
- ED50 [20]: 2.5 mg/kg
- IC50 [21]: 0.0023 µM
- IC50 [22]: 0.0011 µM
- inhibition in vivo at 30 mg/kg [23]: 64%
- Activity [24]: 91%

Structure (SMILES): C=C(C)[C@]12C[C@@H](C)[C@@]34OC(Cc5ccccc5)(O[C@@H]1C3C=C(COC(=O)Cc1ccc(O)c(OC)c1)C[C@]1(O)C(=O)C(C)=C[C@@H]41)O2 (stereo partly drawn)
- IC50 [2]: 0.15 µM

Structure (SMILES): C=CCc1ccc(O)c(OC)c1 [EUGENOL]
- EC50 [25]: 66 µM

Structure (SMILES): C=C(C)[C@@H]1CCC(C)=C[C@H]1c1c(O)cc(CCCCC)cc1O [CANNABIDIOL]
- IC50 [2]: 0.06 µM

Structure (SMILES): COc1cnc(-c2ccccn2)nc1CC(C)C
- EC50 [26]: 0.1 µM

Structure (SMILES): Cc1cc(NC(C)C)no1
- EC50 [11]: 0.1 µM

Structure (SMILES): Clc1ccc(COC(Cn2ccnc2)c2ccc(Cl)cc2Cl)cc1 (stereo not drawn) [ECONAZOLE]
- IC50 [2]: 0.42 µM

Structure (SMILES): COc1cc(CN(CCN)c2nc3ccccc3s2)ccc1OCc1ccccc1F
- IC50 [2]: < 0.02 µM

Structure (SMILES): CCCCC/C=C/C/C=C\C/C=C/C/C=C/CCCC(=O)NCCO
- IC50 [2]: 0.15 µM

Structure (SMILES): Cc1c(N(Cc2ccc(F)c(C(F)(F)F)c2)S(=O)(=O)N2CCC(C(=O)O)CC2)sc2ccccc12
- IC50 [8]: 0.026 µM

Structure (SMILES): COc1ccc(CCCOC(Cn2ccnc2)c2ccc(OC)cc2)cc1 (stereo not drawn)
- IC50 [2]: 0.8 µM

Structure (SMILES): COc1cc(CN(CCN)C(=O)NC(C)c2ccccc2)ccc1OCc1ccccc1 (stereo not drawn)
- IC50 [27]: 0.05 nM

Structure (SMILES): CC12CCC(CC1)C(C)(C)O2 [EUCALYPTOL]
- EC50 [17]: 7000 µM

Structure (SMILES): O=C(O)c1ccc(S(=O)(=O)N(Cc2ccc(OC(F)(F)F)cc2)c2ncc(C(F)(F)F)cc2Cl)cc1
- ED50 [28]: 0.65 mg/kg

Structure (SMILES): CCCCC/C=C/C/C=C\C/C=C/C/C=C/CCCC(=O)NCCc1ccc(O)c(O)c1
- IC50 [2]: 0.7 µM

Structure (SMILES): COc1ccc2c(c1)n(CCN)c(=O)n2C(=O)[C@@H]1C[C@H](C)CC[C@H]1C(C)C
- EC50 [3]: < 5 µM
